# In patent US5395947A, “Platinum(II) complex and processes for preparing the same” (Sunkyong Industries, Ltd., priority 1991, dated 1995):
# How the values were obtained:
# [1] = system: murine leukemia L1210 cells; assay: Growth inhibition test on cultured murine leukemia L1210 cells; assay type: cell-based; settings: 48 hours, 37° C., Trypan blue viability
# Protocol: 1. Growth inhibition test on cultured murine leukemia L1210 cells
# Murine leukemia L1210 cells(1×10^5) were treated with various concentrations of the compounds prepared in the above examples in RPMI 1640 medium supplemented with 10% fetal calf serum, and cultured in a 5% CO2 humidified incubator at 37° C. for 48 hours. Their viability, estimated by staining with 0.17% Trypan blue, was compared with that of control cells cultured in the identical medium without the compounds.
# [2] = Test for water solubility; assay type: physicochemical; settings: water
# From the text: 3. Test for water solubility
# A standard plot of UV absorbance(220 nm) vs. concentration was made; and employed to determine water-solubility.
# The mixture was then passed through a 0.45 micron disposable membrane filter before dilution and UV measurement.
# murine leukemia L1210 = assay: Antitumor activity test on murine leukemia L1210 in vivo; parameters: species or system male BDF1 mice; settings: days 1, 5, 9
# Protocol: 2. Antitumor activity test on murine leukemia L1210 in vivo
# Murine leukemia L1210 cells were maintained in the peritoneal cavities of 6-week-old male DBA/2 mice by weekly transfer in accordance with the procedure described in cancer chemotherapy Reports, Part 3, 3(2), 7 (1972). Specifically, 1×10^6 leukemia cells were inoculated into the abdominal cavities of 6-week-old male BDF1 mice weighing 21±3 g on day 0. Each treatment group consisted of seven mice. The test compounds were dissolved or suspended in 0.5% carboxymethyl cellulose(CMC)solution (in water) and were administered intraperitoneally on days 1, 5, and 9 relative to the tumor inoculation.
# Thirty mice of 6-week-old male BDF1 weighing 21±3 g were used as the control group, which were injected with 0.5% CMC solution only in the same manner as above.
# Anti-tumor activities of the compounds were evaluated in terms of the T/C % values calculated from the mean survival time(T) of the compound-treated group over that(C) of the control group. [formula]
# ICR mice = assay: Acute toxicity test; assay type: in vivo; parameters: Lethality: unit not given here; settings: for Lethality: 10080 min
# Protocol: 7-week-old ICR mice(male: 34±2 g; female: 31±2 g) were fed with solid food and water under the condition of 23±1° C. temperature and 65±5% humidity before the test.
# Each treatment group consisted of 6 mice. The test compounds were administered intraperitoneally.
# For 7 days after the administration, the appearance and the fate of the tested animals were recorded. The dead animals were subjected to autopsy and their visible pathological changes were observed. Their viscerals were stored in 10% formalin solution.
compound,measurement,setting,value
"CCC1(CC)OC2C[NH2+][Pt-2]3([NH2+]CC2O1)[O]CC(=O)[O]3 [Example 8, (glycolato-O,O')[(4R,5R)-4,5-bis(aminomethyl)-2,2-diethyl-1,3-dioxolane]platinum(II)]",IC50 (concentration required for 50% inhibition of growth),[1],0.06 µg/mL
same,Solubility in water,[2],> 30 mg/mL
same,T/C (%),murine leukemia L1210; 3.1 mg/kg i.p.,154%
same,T/C (%),murine leukemia L1210; 6.2 mg/kg i.p.,198%
same,T/C (%),murine leukemia L1210; 12.5 mg/kg i.p.,245%
same,T/C (%),murine leukemia L1210; 25 mg/kg i.p.,toxic
same,T/C (%),murine leukemia L1210; 50 mg/kg i.p.,toxic
same,Number of dead mice for 7 days,"ICR mice; female, 41.3 mg/kg i.p.",0/6
same,"Number of dead mice, 1st day","ICR mice; female, 41.3 mg/kg i.p.",0/6
same,Lethality,"ICR mice; female, 41.3 mg/kg i.p.",0.0
same,Number of dead mice for 7 days,"ICR mice; female, 54.9 mg/kg i.p.",3/6
same,"Number of dead mice, 1st day","ICR mice; female, 54.9 mg/kg i.p.",0/6
same,"Number of dead mice, 3rd day","ICR mice; female, 54.9 mg/kg i.p.",1/6
same,"Number of dead mice, 4th day","ICR mice; female, 54.9 mg/kg i.p.",2/5
same,Lethality,"ICR mice; female, 54.9 mg/kg i.p.",50.0
same,Number of dead mice for 7 days,"ICR mice; female, 71.4 mg/kg i.p.",5/6
same,"Number of dead mice, 1st day","ICR mice; female, 71.4 mg/kg i.p.",0/6
same,"Number of dead mice, 4th day","ICR mice; female, 71.4 mg/kg i.p.",2/6
same,"Number of dead mice, 5th day","ICR mice; female, 71.4 mg/kg i.p.",3/4
same,Lethality,"ICR mice; female, 71.4 mg/kg i.p.",83.7
same,Number of dead mice for 7 days,"ICR mice; female, 91.8 mg/kg i.p.",6/6
same,"Number of dead mice, 1st day","ICR mice; female, 91.8 mg/kg i.p.",0/6
same,"Number of dead mice, 2nd day","ICR mice; female, 91.8 mg/kg i.p.",1/6
same,"Number of dead mice, 3rd day","ICR mice; female, 91.8 mg/kg i.p.",3/5
same,"Number of dead mice, 4th day","ICR mice; female, 91.8 mg/kg i.p.",2/2
same,Lethality,"ICR mice; female, 91.8 mg/kg i.p.",100.0
same,Number of dead mice for 7 days,"ICR mice; male, 41.3 mg/kg i.p.",0/6
same,"Number of dead mice, 1st day","ICR mice; male, 41.3 mg/kg i.p.",0/6
same,Lethality,"ICR mice; male, 41.3 mg/kg i.p.",0.0
same,Number of dead mice for 7 days,"ICR mice; male, 54.9 mg/kg i.p.",4/6
same,"Number of dead mice, 1st day","ICR mice; male, 54.9 mg/kg i.p.",0/6
same,"Number of dead mice, 3rd day","ICR mice; male, 54.9 mg/kg i.p.",2/6
same,"Number of dead mice, 4th day","ICR mice; male, 54.9 mg/kg i.p.",2/4
same,Lethality,"ICR mice; male, 54.9 mg/kg i.p.",66.7
same,Number of dead mice for 7 days,"ICR mice; male, 71.4 mg/kg i.p.",5/6
same,"Number of dead mice, 1st day","ICR mice; male, 71.4 mg/kg i.p.",0/6
same,"Number of dead mice, 3rd day","ICR mice; male, 71.4 mg/kg i.p.",1/6
same,"Number of dead mice, 4th day","ICR mice; male, 71.4 mg/kg i.p.",4/5
same,Lethality,"ICR mice; male, 71.4 mg/kg i.p.",83.3
same,Number of dead mice for 7 days,"ICR mice; male, 91.8 mg/kg i.p.",6/6
same,"Number of dead mice, 1st day","ICR mice; male, 91.8 mg/kg i.p.",0/6
same,"Number of dead mice, 2nd day","ICR mice; male, 91.8 mg/kg i.p.",2/6
same,"Number of dead mice, 3rd day","ICR mice; male, 91.8 mg/kg i.p.",4/4
same,Lethality,"ICR mice; male, 91.8 mg/kg i.p.",100.0
